Reference: patent US12410164B2, “Heterocyclic compounds and medical use thereof” (FONDAZIONE TELETHON, priority 2018, dated 2025)
“Also recorded” adds a separate entry of the source.

Legend:
G542X-CFTR = assay: HS-YFP assay in null CFBE41o− cells transfected with G542X-CFTR; assay type: cell-based
Description: To assess the function and pharmacological sensitivity of G542X-CFTR mutant, inventors used the null version of CFBE41o− cells, i.e. cells with negligible expression of endogenous CFTR and without HS-YFP. Such cells were transiently transfected with the plasmid coding for HS-YFP alone or in combination with: empty plasmid, plasmid coding for wild type CFTR, or plasmid coding for G542X-CFTR. For transfection, cells were seeded in 96-well microplates (30,000 cells/well) in 150 μl of antibiotic-free culture medium. After 24 hours, cells were transfected with the desired plasmids. For each well, 0.2 μg of total plasmid DNA and 0.5 μl of Lipofectamine 2000 (Invitrogen) were first pre-mixed in 50 μl of OPTIMEM (Invitrogen) to generate transfection complexes (60 minutes at room temperature), and then added to the cells. After 24 hour, the complexes were removed by replacement with fresh culture medium. The HS-YFP functional assay was performed after further 24 hours.
To assess the ability of compounds of present invention to improve the rescue of premature stop codon (class I) mutations, we carried out experiments on G542X-CFTR (FIG. 7). Null CFBE41o− cells, devoid of endogenous CFTR expression, were transiently transfected with empty, wild type CFTR or G542X-CFTR plasmids. All cells also received the HS-YFP plasmid to allow functional determination of CFTR-dependent anion transport. […] Where indicated, cells with G542X-CFTR were also treated with G418 (0.5 mg/ml) for 24 hr to induce readthrough of the stop codon mutation, with and without correctors (VX-809 and/or PP028, labeled as VX and PP). […] The activity resulting from wild type CFTR is also shown for comparison.

F508del-CFTR [1] = target: T1, F508del-CFTR (Homo sapiens, UniProt P13569, DEL508-508); assay: Transepithelial short-circuit current in primary nasal epithelial cells of F508del homozygous CF patient; assay type: cell-based; design: endogenous in cells; host or cells: primary bronchial and nasal epithelial cells from CF patients homozygous for F508del; conditions: FIG. 3C
T1 sequence (P13569 with tags, fused parts or gaps DEL508-508): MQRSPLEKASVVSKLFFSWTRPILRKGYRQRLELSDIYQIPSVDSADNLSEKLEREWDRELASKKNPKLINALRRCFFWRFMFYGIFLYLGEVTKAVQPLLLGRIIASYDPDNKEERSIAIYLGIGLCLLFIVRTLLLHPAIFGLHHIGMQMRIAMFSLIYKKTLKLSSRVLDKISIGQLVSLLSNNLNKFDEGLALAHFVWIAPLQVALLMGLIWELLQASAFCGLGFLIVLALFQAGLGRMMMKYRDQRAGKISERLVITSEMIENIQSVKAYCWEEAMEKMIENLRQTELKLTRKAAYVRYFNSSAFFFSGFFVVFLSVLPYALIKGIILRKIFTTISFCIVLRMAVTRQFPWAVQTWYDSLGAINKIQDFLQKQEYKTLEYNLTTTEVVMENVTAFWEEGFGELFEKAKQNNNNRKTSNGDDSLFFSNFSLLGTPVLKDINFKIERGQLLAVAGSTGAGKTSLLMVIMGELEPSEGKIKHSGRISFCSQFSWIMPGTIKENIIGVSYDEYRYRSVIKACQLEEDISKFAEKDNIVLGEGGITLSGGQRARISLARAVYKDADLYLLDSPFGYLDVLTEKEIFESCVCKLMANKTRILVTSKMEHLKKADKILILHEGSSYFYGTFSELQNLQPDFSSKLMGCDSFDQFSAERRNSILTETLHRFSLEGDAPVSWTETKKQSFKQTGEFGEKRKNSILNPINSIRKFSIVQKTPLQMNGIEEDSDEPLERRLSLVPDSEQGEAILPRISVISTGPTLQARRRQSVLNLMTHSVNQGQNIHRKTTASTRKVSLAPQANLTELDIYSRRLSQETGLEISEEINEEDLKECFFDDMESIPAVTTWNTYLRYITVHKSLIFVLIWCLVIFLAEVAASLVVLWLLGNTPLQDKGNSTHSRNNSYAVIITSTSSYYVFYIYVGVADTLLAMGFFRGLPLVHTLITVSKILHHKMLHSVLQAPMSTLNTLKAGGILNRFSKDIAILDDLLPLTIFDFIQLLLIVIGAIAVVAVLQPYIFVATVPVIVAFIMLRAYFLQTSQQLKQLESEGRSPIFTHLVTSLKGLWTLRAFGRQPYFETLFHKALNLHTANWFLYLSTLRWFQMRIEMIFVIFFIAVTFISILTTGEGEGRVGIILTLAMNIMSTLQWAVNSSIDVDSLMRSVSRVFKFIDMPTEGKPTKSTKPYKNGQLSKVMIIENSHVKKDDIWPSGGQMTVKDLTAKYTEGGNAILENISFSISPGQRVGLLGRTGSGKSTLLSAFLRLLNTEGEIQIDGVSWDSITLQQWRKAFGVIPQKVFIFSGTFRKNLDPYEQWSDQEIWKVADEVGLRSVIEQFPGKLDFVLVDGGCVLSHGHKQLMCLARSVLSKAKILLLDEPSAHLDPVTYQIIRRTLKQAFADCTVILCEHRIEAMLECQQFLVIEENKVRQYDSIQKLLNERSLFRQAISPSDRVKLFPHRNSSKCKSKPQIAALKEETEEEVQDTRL
Text: The culture and functional study of human primary nasal and bronchial epithelial cells have been described in detail above (Scudieri P, et al. J Physiol. 2012, 590, 6141-6155). Briefly, nasal epithelial cells were taken after informed consent using the “brushing” technique. Bronchial cells were instead obtained by proteolytic digestion of bronchi isolated from the lungs of patients (suffering from CF or other pulmonary pathology (idiopathic pulmonary fibrosis, pulmonary hypertension, emphysema) subjected to transplant operations. The informed consent of the patients was obtained also in this case. After isolation, epithelial cells were cultured in a liquid medium of defined serum-free composition. This medium consists of a mixture of LHC9/RPMI 1640 (1:1) enriched with various hormones and growth factors (Scudieri P, et al. J Physiol. 2012, 590, 6141-6155). After 3-5 passages, necessary for the expansion of the initial number, the cells were seeded at high density on Snapwell porous supports (Corning, 3801). After 24 hours, the culture medium was replaced by a mixture consisting of DMEM and Ham's F12 (1:1) enriched with 2% foetal bovine serum and other supplements. […] With this mode, the transepithelial potential difference is locked to zero and the resulting current, supplied by the Voltage Clamp is recorded by an AD/DA converter (PowerLab, ADInstruments).

[2] = system: calcium-dependent chloride secretion; assay: Short-circuit current in bronchial epithelial cells: UTP-activated, inh-A01-inhibited chloride secretion; assay type: cell-based, human; conditions: compound 10 μM, activated with UTP
Description: FIG. 3. PP008 corrective activity on primary epithelial cells. (A) The representative plots and (B) the bar chart show the results obtained by treating bronchial epithelial cells from a patient homozygous for the mutation F508del with PP008 (10 μM) in the presence and absence of VX-809 (1 μM). As control, cells were treated for 24 h with vehicle alone (dimethylsufoxide, DMSO) at the same concentration (0.1%) used to add test compounds. […] (C) Results obtained on nasal epithelial cells of a homozygous F508del patient. *, p<0.05; ***, p<0.001.
(§1) The culture and functional study of human primary nasal and bronchial epithelial cells have been described in detail above (Scudieri P, et al. J Physiol. 2012, 590, 6141-6155). Briefly, nasal epithelial cells were taken after informed consent using the “brushing” technique. […] With this mode, the transepithelial potential difference is locked to zero and the resulting current, supplied by the Voltage Clamp is recorded by an AD/DA converter (PowerLab, ADInstruments).

F508del-CFTR [3] = target: T1, F508del-CFTR; assay: Transepithelial short-circuit current in primary bronchial epithelial cells of F508del homozygous CF patient; assay type: cell-based; design: endogenous in cells; host or cells: primary bronchial and nasal epithelial cells from CF patients homozygous for F508del
Description: as §1
The cells were grown in such a way as to generate differentiated epithelia on porous supports (Snapwell). […] As a channel-protein able to mediate a chloride ion flux, CFTR activity is detected as a transepithelial ionic current. […]

For `CCOC(=O)c1c(Br)c2c(n1Cc1cccc(C)c1)-c1[nH]c(=O)c(S(=O)(=O)c3ccccc3)cc1CC2` [PP028, Ethyl 3-bromo 1-(3-methylbenzyl)-8-oxo-7-(phenylsulfonyl)-4,5,8,9-tetrahydro-1H-pyrrolo[3,2-h]quinoline-2-carboxylate], which “CFTR activity (QR) in G542X-CFTR cells versus G418 alone” value (G542X-CFTR; G418 0.5 mg/ml plus VX-809 1 μM or PP028 10 μM) is on record?
Its value is “further increased activity”.

What about the “comparison of co-treatments with G418 in G542X-CFTR cells” value (G542X-CFTR; PP028 10 μM versus VX-809 1 μM, each plus G418) of the same molecule?
The value was “significantly more effective than VX-809”.

What does the source list for `CCOC(=O)c1c(Br)c2c(n1Cc1ccc(C)cc1)-c1[nH]c(=O)c(S(=O)(=O)c3ccccc3)cc1CC2` [PP008, Ethyl 7-(benzenesulfonyl)-3-bromo-1-[(4-methylphenyl)methyl]-8-oxo-4,5,8,9-tetrahydro-1H-pyrrolo[3,2-h]quinoline-2-carboxylate]?
effect of combination with VX-809 on F508del-CFTR current (F508del-CFTR [1]): synergistic effect; calcium-dependent chloride secretion [2]: does not modify; F508del-CFTR activity (current blocked by inh-172) (F508del-CFTR [3]; compound 10 μM alone, 24 h incubation): significantly increased; also recorded: significant increase in current; F508del-CFTR activity (current blocked by inh-172) of combination (F508del-CFTR [3]; compound 10 μM plus VX-809 1 μM, 24 h): significantly greater than the sum of the effects of the individual correctors
